Test results taken from PMC7055211 (Scientific Reports, 2020).

Test system: Mahoney strain of poliovirus
Assay type: cell-based, Poliovirus Type I Mahoney
Details: 293 T; infectivity; PFU

Compound: COc1ccc2[nH]c([S+]([O-])Cc3ncc(C)c(OC)c3C)nc2n1 (stereo not shown) [Tenatoprazole, tenatoprazole]
- Virus Production (resistant or susceptible), PV: Resistant
